Where “and” joins values, the source holds several entries; their conditions need not be identical. Identical values can stand only once.
Key:
[1] = test system: Tyrosine Hydroxylase (dopaminergic cells); assay: Tyrosine hydroxylase immunohistochemistry; format: in vivo, mouse; conditions: striatum, SG-fed, either time-point
Experimental: Labelling of dopaminergic neurons in brain sections was identified by antibodies for tyrosine hydroxylase (Morrow, C. E., Bandstra, et al., (2001) Neurotoxicol Teratol. 23, 533-44) and indirect immunoperoxidase staining. Sections were incubated in blocking serum for 2 hours then with the primary antibody (rabbit anti-tyrosine hydroxylase, 1:500, Affinity Bioreagents, Golden, Colo., USA) for 3 hours at RT. Sections were rinsed and incubated in biotinylated goat anti-rabbit IgG (1:100; Vector laboratories Inc., Burlingame, USA) for 30 minutes at RT, then visualized using the ABC method (Vectastain Elite ABC kit, Vector Laboratories Inc.).
The numbers of immunoreactive somata or inclusions were counted across the ventral horn of the spinal cord, across brain hemispheres, or per dorsal or ventral root with the 40× objective lens in a 600 μm/600 μm area within region perimeters defined by a mouse brain atlas (2001). For each animal, eight cross-sections per spinal cord or brain region were studied. An average of both the right and left ventral horn for each of the eight cross sections was generated giving a final averaged number for each animal in each of the spinal cord areas. […]

[2] = test system: Phosphorylated TDP-43 aggregates; assay: TDP-43 immunofluorescence; format: in vivo, mouse; design: key to Phosphorylated TDP-43 aggregates: − = not present; + = present; conditions: for Phosphorylated TDP-43 aggregates: SG-fed
Experimental: Tissue-mounted slides were processed for fluorescence microscopy as follows: Sections were rinsed in coplin jars for 45 minutes at room temperature (RT) in three changes of PBS. Sections were then incubated at RT for 30 minutes in a blocking permeabilization solution made of 5% normal goat serum (NGS), 5% normal rabbit serum (NRS) or 5% BlokHen II (Ayes Labs, Inc., Tigard, Oreg.), 0.05% Triton X-100 and PBS. Subsequently, the blocking solution was tipped off and the slides were rinsed in PBS for 2 minutes. Sections were then incubated overnight in a humidified chamber at 4° C. with a PBS buffered solution that contained 1% NGS or 1% NRS, 1% bovine serum albumin (BSA) and one of the following primary antibodies: (a) rabbit anti-human/mouse ATF-3 (H-90) IgG (polyclonal, 1:500; Santa Cruz Biotechnology, Inc., Santa Cruz, Calif.), (b) anti-activated caspase-3 IgG (monoclonal, 1:250; Chemicon International, Temecula, Calif.) (see FIG. 9), (c) goat antihuman/mouse choline acetyl transferase (ChAT) IgG (polyclonal, 1:100; Chemicon International, Temecula, Calif.) (see FIG. 6), (d) rabbit anti-mouse glial fibrillary acidic protein IgG (polyclonal, 1:250; GeneTex Inc., San Antonio, Tex.) (see FIG. 7), (e) rabbit antihuman/mouse ionized calcium binding adaptor molecule 1 (IBA-1) IgG (polyclonal, 1:500; Wako Pure Chemical Industries, Ltd, Richmond, Va.), (f) mouse anti-human/mouse clone AT8 PHF-1 Tau (monoclonal, 1:200; Pierce Biotechnology Inc., Rockford, Ill.), (g) rabbit anti-human/mouse TAR DNA-binding protein 43 (TDP43) (1:100; ProteinTech Group Inc., Chicago, Ill.) (See FIG. 14), (h) chicken anti-human/mouse β-tubulin 3 (TuJ1 antigen) (polyclonal, 1:100, Ayes Labs, Inc., Tigard, Oreg.), (i) rabbit anti-mouse tyrosine hydroxylase (polyclonal, 1:500, Chemicon International, Temecula, Calif. or polyclonal 1:1000, Affinity BioReagents, Golden, Colo.) (FIG. 10), (j) rabbit anti human/mouse anti-pJunscr73 IgG (polyclonal, 1:200; Chemicon International, Temecula, Calif.), (k) rabbit anti human/mouse anti-HSP-70 IgG (polyclonal, 1:200; Chemicon International, Temecula, Calif.), or (1) rabbit anti human/mouse anti-HSP-25 IgG (polyclonal, 1:100; Chemicon International, Temecula, Calif.). In each experiment, additional slides were incubated with the primary antibody and the secondary antibody omitted or with secondary antibody and primary antibody omitted to test for nonspecific staining. Where appropriate, positive control slides (Alzheimer's disease patient entorhinal cortex, obtained from Drs. Claudia Schwab and Patrick McGeer of the Kinsmen Laboratory, University of British Columbia, Vancouver, BC, Canada) were also processed as above for comparison. […]

CC[C@H](/C=C/[C@@H](C)[C@H]1CC[C@H]2[C@@H]3CC=C4C[C@@H](O[C@@H]5O[C@H](CO)[C@@H](O)[C@H](O)[C@H]5O)CC[C@]4(C)[C@H]3CC[C@]12C)C(C)C [SG, Stigmasterol β-D-Glucopyranoside]
Decrease in tyrosine hydroxylase optical density in striata [1]: not significant | Phosphorylated TDP-43 aggregates ([2]; Time-point 1 (35 wk)): No abnormal translocation of TDP-43 was observed and − | Phosphorylated TDP-43 aggregates ([2]; Time-point 2 (52 wk)): + | TDP-43 pathology, incidence in SG-fed group ([2]; Time-point 2 (52 wk), lumbar spinal cord): Two of eight and 2/8 | Pathologic phosphorylated TDP-43-containing aggregates, quantification ([2]; lumbar spinal cord, SG-fed animals): increased

Reference: patent publication US9573972B2, “Nurotoxic sterol glycosides” (priority 2008, dated 2017)
